In PMC5802362 (Amino acids, 2016):

Target: butyrylcholinesterase (Equus caballus, UniProt P81908)
Test: Inhibition constant
Type: biochemical, equine
Details: BChE, 100 µM butyrylthiocholine, 2 % methanol, 25 °C, pH 7.5

Chain of butyrylcholinesterase (P81908 whole entry): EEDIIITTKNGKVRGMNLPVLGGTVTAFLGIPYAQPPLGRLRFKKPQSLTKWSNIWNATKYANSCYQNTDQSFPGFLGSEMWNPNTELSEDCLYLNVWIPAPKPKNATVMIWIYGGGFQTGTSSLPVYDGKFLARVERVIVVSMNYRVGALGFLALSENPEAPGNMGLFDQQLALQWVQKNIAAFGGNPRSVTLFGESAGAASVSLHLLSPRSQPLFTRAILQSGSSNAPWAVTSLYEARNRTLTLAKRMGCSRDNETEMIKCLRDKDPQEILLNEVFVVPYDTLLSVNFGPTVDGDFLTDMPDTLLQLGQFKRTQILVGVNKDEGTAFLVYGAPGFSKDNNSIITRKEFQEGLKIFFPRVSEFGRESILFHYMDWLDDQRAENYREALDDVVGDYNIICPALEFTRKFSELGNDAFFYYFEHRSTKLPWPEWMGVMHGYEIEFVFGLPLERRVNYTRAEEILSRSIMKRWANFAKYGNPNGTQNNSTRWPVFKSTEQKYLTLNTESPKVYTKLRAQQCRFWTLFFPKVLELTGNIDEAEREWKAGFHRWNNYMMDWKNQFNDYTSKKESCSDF

| SMILES | Ki [µM] |
| --- | --- |
| CC(C)[C@H](NC(=O)OCC1c2ccccc2-c2ccccc21)C(=O)O [Fmoc-Val-O^−] | 313 ± 14 |
| CC(C)C[C@H](NC(=O)OCc1ccccc1)C(=O)O [Cbz-Leu-O^−] | 1150 ± 130 |
| O=C(N[C@@H](Cc1c[nH]c2ccccc12)C(=O)O)OCC1c2ccccc2-c2ccccc21 [Fmoc-Trp-O^−] | 193 ± 21 |
| O=C(N[C@@H](Cc1ccc(O)cc1)C(=O)O)OCC1c2ccccc2-c2ccccc21 [Fmoc-Tyr-O^−] | 307 ± 13 |
| CC(C)C[C@H](NC(=O)OCC1c2ccccc2-c2ccccc21)C(=O)O [Fmoc-Leu-O^−] | 115 ± 11 |
| NCCCC[C@H](NC(=O)OCc1ccccc1)C(=O)O [Cbz-Lys-O^−] | 1540 ± 502 |
| CC[C@H](C)[C@H](NC(=O)OCC1c2ccccc2-c2ccccc21)C(=O)O [Fmoc-Ile-O^−] | 194 ± 13 |
| O=C(N[C@@H](Cc1ccccc1)C(=O)O)OCC1c2ccccc2-c2ccccc21 [Fmoc-Phe-O^−] | 330 ± 15 |
| NCCCC[C@H](NC(=O)OCC1c2ccccc2-c2ccccc21)C(=O)O [Fmoc-Lys-O^−] | 150 ± 10 |

System: not given
Test: not given
Details: calculated with VOIDOO; ref Saxena et al. 1997; cited from earlier work

| SMILES | van der Waals volume [Å^3] |
| --- | --- |
| CCN(CC)C(C)CN1c2ccccc2Sc2ccccc21 (centres unmarked) [ethopropazine] | 317.6 |

System: BChE and AChE
Test: not given
Details: ref Saxena et al. 1997; cited from earlier work

| SMILES | Difference in the KI value between BChE and AChE [fold] |
| --- | --- |
| CCN(CC)C(C)CN1c2ccccc2Sc2ccccc21 (centres unmarked) [ethopropazine] | 9000 |
